# Reference: patent publication US12435128B2, “Method for predicting therapeutic effect of LSD1 inhibitor based on expression of INSM1” (TAIHO PHARMACEUTICAL CO., LTD., priority 2017, dated 2025)
# Like-named read-outs stand apart in the source and are kept apart here.
# Assays:
# [1] = test system: HEL cells (human acute myelocytic leukemia cell lines); test: Cell-growth inhibition test: HEL cells; type: cell-based; details: read-out: IC50 (nM), Cell-Growth Inhibition Test: HEL Cells
# Description: (§1) Under the following conditions, an in vitro cell-growth inhibition test was performed with respect to HEL cells (human acute myelocytic leukemia cell lines), NCI-H1417 cells (human small-cell lung cancer cell lines), and NCI-H146 cells (human small-cell lung cancer cell lines).
# (§2) The cells with the Example compound or with dimethylsulfoxide alone were cultured at 37° C. in a 5% carbon-dioxide-containing incubator for 5 days (HEL cells) or 10 days (NCI-H1417 cells and NCI-H146 cells). After culture, the plate was allowed to stand at room temperature for 30 minutes, and 100 μL of the supernatant was removed from each well to leave 100 μL of the cell culture solution. To each well containing the remaining 100 μL of the cell culture solution, the same amount of CellTiter-Glo 2.0 Assay (Promega, Cat #: G9242) was added. The microplate was shaken with a plate mixer for 1 minute and then allowed to stand in a dark place for 10 minutes. Thereafter, the luminescence intensity of viable cells in each well was measured using a microplate reader (PerkinElmer, EnSpire). […] Cell growth rate(%)=T/C×100 • T: The luminescence intensity in a well to which the test compound was added (count per second) • C: The luminescence intensity in a well to which dimethylsulfoxide alone was added (count per second)
# [2] = test system: NCI-H1417 cells (human small-cell lung cancer cell lines); test: Cell-growth inhibition test: NCI-H1417 cells; type: cell-based
# Description: as §1, §2
# [3] = Homo sapiens, NCI-H1417, read-out: IC50 (nM), Cell-Growth Inhibition Test: NCI-H1417 Cells
compound,measurement,setting,value
"N#Cc1ccc(-c2cc(C(=O)N3[C@@H]4CC[C@H]3C[C@H](N)C4)ccc2-c2ccc3cccnc3c2F)cc1F [Example 105, 4-[5-[(3-exo)-3-amino-8-azabicyclo[3.2.1]octane-8-carbonyl]-2-(8-fluoro-7-quinolyl)phenyl]-2-fluoro-benzonitrile]",IC50,[1]; HEL cells,5.74 nM
"CC(C)(O)Cn1ncc2cc(-c3ccc(C(=O)N4[C@@H]5CC[C@H]4C[C@@H](N)C5)cc3-c3ccc(C#N)c(F)c3)c(F)c(F)c21 [Example 188, 5′-((3-endo)-3-amino-8-azabicyclo[3.2.1]octane-8-carbonyl)-2′-(6,7-difluoro-1-(2-hydroxy-2-methylpropyl)-1H-indazol-5-yl)-3-fluoro-[1,1′-biphenyl]-4-carbonitrile]",IC50,[1],5.95 nM
"N#Cc1ccc(-c2cc(C(=O)N3CC[C@H](N)C3)ccc2-c2ccc(CC3(O)CC3)cc2)cc1 [Example 59, 4-[5-[(3S)-3-aminopyrrolidine-1-carbonyl]-2-[4-[(1-hydroxycyclopropyl)methyl]phenyl]phenyl]benzonitrile]",IC50,"[1]; Homo sapiens, HEL",32 nM
"CN(C)c1ccc(-c2ccc(C(=O)N3CC[C@H](N)C3)cc2-c2ccc(C#N)c(F)c2)cn1 [Example 100, 4-[5-[(3S)-3-aminopyrrolidine-1-carbonyl]-2-[6-(dimethylamino)-3-pyridyl]phenyl]-2-fluoro-benzonitrile]",IC50,"[1]; Homo sapiens, HEL",12.8 nM
"Cn1ncc2cc(-c3ccc(C(=O)N4[C@@H]5CC[C@H]4C[C@H](N)C5)cc3-c3ccc(C#N)c(F)c3)c(F)cc21 [Example 24, 4-[5-[(3-exo)-3-amino-8-azabicyclo[3.2.1]octane-8-carbonyl]-2-(6-fluoro-1-methyl-indazol-5-yl)phenyl]-2-fluoro-benzonitrile]",IC50,[1]; HEL cells,3.5 nM
"CCn1nnc2cc(-c3ccc(C(=O)N4[C@@H]5CC[C@H]4C[C@H](N)C5)cc3-c3ccc(C#N)c(F)c3)c(F)cc21 [Example 160, 5′-((3-endo)-3-amino-8-azabicyclo[3.2.1]octane-8-carbonyl)-2′-(1-ethyl-6-fluoro-1H-benzo[d][1,2,3]triazol-5-yl)-3-fluoro-[1,1′-biphenyl]-4-carbonitrile]",IC50,[1],7.03 nM
"Cn1c(=O)oc2cc(-c3ccc(C(=O)N4CC[C@H](N)C4)cc3-c3ccc(C#N)c(F)c3)ccc21 [Example 119, 4-[5-[(3S)-3-aminopyrrolidine-1-carbonyl]-2-(3-methyl-2-oxo-1,3-benzooxazol-6-yl)phenyl]-2-fluoro-benzonitrile]",IC50,[2]; [3],23.9 nM
"COCCc1ccc(-c2ccc(C(=S)N3CC[C@H](N)C3)cc2-c2ccc(C#N)c(F)c2)c(F)c1 [Example 94, 4-[5-[(3S)-3-aminopyrrolidine-1-carbothioyl]-2-[2-fluoro-4-(2-methoxyethyl)phenyl]phenyl]-2-fluoro-benzonitrile]",IC50,"[1]; Homo sapiens, HEL",29.4 nM
"Cc1ccc(-c2ccc(C(=O)N3CCC4(CNC4)C3)cc2-c2ccc(C#N)cc2)cc1 [Example 5, 4-[5-(2,7-diazaspiro[3.4]octane-7-carbonyl)-2-(p-tolyl)phenyl]benzonitrile]",IC50,"[1]; Homo sapiens, HEL",34.8 nM
"Cn1ccc2cc(-c3ccc(C(=O)N4CC[C@H](N)C4)cc3-c3ccc(C#N)c(F)c3)c(F)cc21 [Example 134, (S)-5′-(3-aminopyrrolidine-1-carbonyl)-3-fluoro-2′-(6-fluoro-1-methyl-1H-indol-5-yl)-[1,1′-biphenyl]-4-carbonitrile]",IC50,[2]; [3],0.93 nM
"CC(C)(O)Cn1ccc2cc(-c3ccc(C(=O)N4C5CCC4CC(N)C5)cc3-c3ccc(C#N)c(F)c3)c(F)cc21 (stereo not drawn) [Example 136, 5′-((3-endo)-3-amino-8-azabicyclo[3.2.1]octane-8-carbonyl)-3-fluoro-2′-(6-fluoro-1-(2-hydroxy-2-methylpropyl)-1H-indol-5-yl)-[1,1′-biphenyl]-4-carbonitrile]",IC50,"[2]; read-out: IC50 (nM), Cell-Growth Inhibition Test: NCI-H1417 Cells",2.39 nM
"COc1c(F)c(-c2ccc(C(=O)N3[C@@H]4CC[C@H]3C[C@@H](N)C4)cc2-c2ccc(C#N)c(F)c2)cc2cnn(CC(C)(C)O)c12 [Example 186, 5′-((3-endo)-3-amino-8-azabicyclo[3.2.1]octane-8-carbonyl)-3-fluoro-2′-(6-fluoro-1-(2-hydroxy-2-methylpropyl)-7-methoxy-1H-indazol-5-yl)-[1,1′-biphenyl]-4-carbonitrile]",IC50,[1],6.3 nM
"Cc1ccc(-c2ccc(C(=O)N3CC[C@H](N)C3)cc2-c2ccc([N+](=O)[O-])cc2)cc1 [Example 99, [(35)-3-aminopyrrolidin-1-yl]-[3-(4-nitrophenyl)-4-(p-tolyl)phenyl]methanone]",IC50,[1]; HEL cells,11 nM
"Cc1ccc(-c2ccc(C(=O)N3C4CCC3CC(N)C4)cc2-c2ccc(C#N)c(F)c2)c(F)c1F (stereo not drawn) [Example 144, 5′-((3-endo)-3-amino-8-azabicyclo[3.2.1]octane-8-carbonyl)-2″,3,3″-trifluoro-4″-methyl-[1,1′:2′,1″-terphenyl]-4-carbonitrile]",IC50,[1]; HEL cells,0.27 nM
"CC(C)(C)n1nnc2cc(-c3ccc(C(=O)N4C5CCC4CC(N)C5)cc3-c3ccc(C#N)c(F)c3)c(F)cc21 (stereo not drawn) [Example 139, 5′-((3-endo)-3-amino-8-azabicyclo[3.2.1]octane-8-carbonyl)-2′-(1-(tert-butyl)-6-fluoro-1H-benzo[d][1,2,3]triazol-5-yl)-3-fluoro-[1,1′-biphenyl]-4-carbonitrile]",IC50,[1],16.9 nM
"COCCc1ccc(-c2ccc(C(=O)N3C4CCC3CC(NC(C)C)C4)cc2-c2ccc(C#N)c(F)c2)c(F)c1 (stereo not drawn) [Example 112, 2-fluoro-4-[2-[2-fluoro-4-(2-methoxyethyl)phenyl]-5-[(3-exo)-3-(isopropylamino)-8-azabicyclo[3.2.1]octane-8-carbonyl]phenyl]benzonitrile]",IC50,"[2]; NCI-H1417 cells, read-out: IC50 (nM), Cell-Growth Inhibition Test: NCI-H1417 Cells",20.5 nM
"Cn1nnc2cc(-c3ccc(C(=O)N4CC[C@H](NC5CCC5)C4)cc3-c3ccc(C#N)c(F)c3)c(F)cc21 [Example 116, 4-[5-[(3S)-3-(cyclobutylamino)pyrrolidine-1-carbonyl]-2-(6-fluoro-1-methyl-benzotriazol-5-yl)phenyl]-2-fluoro-benzonitrile]",IC50,[2]; [3],29.5 nM
"Cn1nnc2cc(-c3ccc(C(=O)N4[C@@H]5CC[C@H]4C[C@@H](N)C5)cc3-c3ccc(C#N)c(F)c3)c(F)c(F)c21 [Example 145, 5′-((3-endo)-3-amino-8-azabicyclo[3.2.1]octane-8-carbonyl)-2′-(6,7-difluoro-1-methyl-1H-benzo[d][1,2,3]triazol-5-yl)-3-fluoro-[1,1′-biphenyl]-4-carbonitrile]",IC50,[1],1.81 nM
"Cn1cnc2cc(-c3ccc(C(=O)N4[C@@H]5CC[C@H]4C[C@@H](N)C5)cc3-c3ccc(C#N)c(F)c3)c(F)c(F)c21 [Example 126, 4-[5-[(3-endo)-3-amino-8-azabicyclo[3.2.1]octane-8-carbonyl]-2-(6,7-difluoro-1-methyl-benzimidazol-5-yl)phenyl]-2-fluoro-benzonitrile]",IC50,[1]; HEL cells,5.29 nM
"Cn1cc(C(=O)O)c2cc(-c3ccc(C(=O)N4[C@@H]5CC[C@H]4[C@@H](N)C5)cc3-c3ccc(C#N)c(F)c3)c(F)cc21 (single isomer, unassigned) [Example 224]",IC50,[1],46.2 nM
"CC(C)(O)Cn1ccc2cc(-c3ccc(C(=O)N4CC5CNCC5C4)cc3-c3ccc(C#N)c(F)c3)c(F)c(F)c21 (centres unmarked) [Example 203, 2′-(6,7-difluoro-1-(2-hydroxy-2-methylpropyl)-1H-indol-5-yl)-3-fluoro-5′-(octahydropyrrolo[3,4-c]pyrrole-2-carbonyl)-[1,1′-biphenyl]-4-carbonitrile]",IC50,"[1]; Homo sapiens, HEL",2.45 nM
"N#Cc1ccc(-c2cc(C(=O)N3CC[C@H](N)C3)ccc2-c2ccc(C3(C4(O)CC4)CC3)cc2)cc1 [Example 68, 4-[5-[(3S)-3-aminopyrrolidine-1-carbonyl]-2-[4-[1-(1-hydroxycyclopropyl)cyclopropyl]phenyl]phenyl]benzonitrile]",IC50,"[1]; Homo sapiens, HEL",23.9 nM
"CN1CCc2cc(-c3ccc(C(=O)N4CC[C@H](N)C4)cc3-c3ccc(C#N)c(F)c3)ccc21 [Example 117, 4-[5-[(3S)-3-aminopyrrolidine-1-carbonyl]-2-(1-methylindolin-5-yl)phenyl]-2-fluoro-benzonitrile]",IC50,"[1]; Homo sapiens, HEL",5.54 nM
"CC(C)n1c(=O)sc2cc(-c3ccc(C(=O)N4C5CCC4CC(N)C5)cc3-c3ccc(C#N)c(F)c3)ccc21 (stereo not drawn) [Example 138, 5′-((3-endo)-3-amino-8-azabicyclo[3.2.1]octane-8-carbonyl)-3-fluoro-2′-(3-isopropyl-2-oxo-2,3-dihydrobenzo[d]thiazol-6-yl)-[1,1′-biphenyl]-4-carbonitrile]",IC50,[1],0.9 nM
"CN1CCOc2cc(-c3ccc(C(=O)N4C5CCC4CC(N)C5)cc3-c3ccc(C#N)c(F)c3)ccc21 (stereo not drawn) [Example 128, 4-[5-[(3-endo)-3-amino-8-azabicyclo[3.2.1]octane-8-carbonyl]-2-(4-methyl-2,3-dihydro-1,4-benzoxazin-7-yl)phenyl]-2-fluoro-benzonitrile]",IC50,[1]; HEL cells,5.7 nM
"CC(C)(O)Cn1ccc2cc(-c3ccc(C(=O)N4[C@H]5CC[C@@H]4[C@H](N)C5)cc3-c3ccc(C#N)c(F)c3)c(F)cc21 (single isomer, unassigned; isomer-b) [Example 171]",IC50,"[1]; Homo sapiens, HEL",0.08 nM
